Assay results from patent publication US20230339851A1, “CXCR6 SULFONAMIDE COMPOUNDS” (CHEMOCENTRYX, INC., priority 2022, published 2023).
pIC50: −log10 of the molar value.

Target: T1, human CXCR6 (Homo sapiens, UniProt O00574)
T1 construct: expressed in transfected cells
Assay: Radioligand Binding Assay (125I-CXCL16 displacement)
Settings: L1.2 cells stably transfected with human CXCR6 cDNA, 0.1 nM 125I-CXCL16, 4° C., three-hour incubation; read-out: Potency (IC50)
In short: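 L1.2 cells stably expressing human CXCR6 incubated 3 h at 4 °C in HBSS/0.1% BSA with 0.1 nM 125I-CXCL16 and graded compound concentrations. Bound radioactivity collected by filtration and counted; IC50 from 3-parameter nonlinear regression.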

T1 sequence (O00574 whole entry): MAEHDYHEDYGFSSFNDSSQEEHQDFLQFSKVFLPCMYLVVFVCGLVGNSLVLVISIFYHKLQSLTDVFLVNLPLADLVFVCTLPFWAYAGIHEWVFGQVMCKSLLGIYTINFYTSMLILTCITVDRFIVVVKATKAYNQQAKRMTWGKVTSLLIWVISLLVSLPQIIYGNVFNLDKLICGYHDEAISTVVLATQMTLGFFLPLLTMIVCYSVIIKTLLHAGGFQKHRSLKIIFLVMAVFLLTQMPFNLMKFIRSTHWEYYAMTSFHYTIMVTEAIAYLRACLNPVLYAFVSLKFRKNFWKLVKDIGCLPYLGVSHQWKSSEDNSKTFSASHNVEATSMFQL

pIC50 | SMILES
4.70 to 5.70 | CCOc1cc(NC(=O)[C@H]2CC=CC[C@@H]2C(=O)O)ccc1S(=O)(=O)Nc1ccc(C)c(OC(F)(F)F)c1 (racemic) [Example 1.167]
≥ 6.70 | CCOc1cc(NC(=O)[C@@H](CO)C(C)C)ccc1S(=O)(=O)Nc1ccc(Cl)c(C(F)(F)F)c1 [Example 1.523]
4.70 to 5.70 | Cc1cc(NC(=O)c2c(Br)cnn2C)ccc1S(=O)(=O)Nc1cccc(C(F)(F)F)c1 [Example 1.284]
≥ 6.70 | COc1cc(NC(=O)CC2CCCCC2)ccc1S(=O)(=O)Nc1cccc(C(F)(F)F)c1 [Example 1.344]
≥ 6.70 | CCOc1cc(NC(=O)c2ccns2)ccc1S(=O)(=O)Nc1cccc(C(F)(F)F)c1 [Example 1.567]
6.12 to 6.70 | COc1cc(NC(=O)c2ccnn2C)ccc1S(=O)(=O)Nc1cccc(C(C)(C)C)c1 [Example 1.231]
6.12 to 6.70 | COc1cc(NC(=O)c2ccnn2C)ccc1S(=O)(=O)Nc1ccc(OC(F)(F)F)cc1 [Example 1.228]
6.12 to 6.70 | CCOc1cc(NC(=O)[C@@H](CO)C(C)C)ccc1S(=O)(=O)Nc1ccc(C(F)(F)F)cc1 [Example 1.558]
≥ 6.70 | CCOc1cc(NC(=O)[C@@H](N)CC(C)C)ccc1S(=O)(=O)Nc1cccc(OC(F)(F)F)c1 [Example 1.109]
≥ 6.70 | CCOc1cc(NC(=O)[C@@H](NC(C)=O)C(C)C)ccc1S(=O)(=O)Nc1ccc(Cl)c(OC(F)(F)F)c1 [Example 1.576]
6.12 to 6.70 | CCOc1cc(NS(=O)(=O)c2ccc(NC(=O)[C@@H](O)C(C)C)cc2OCC)ccc1Cl [Example 1.210]
4.70 to 5.70 | CC(=O)Nc1ccc(S(=O)(=O)Nc2cccc(OC(F)(F)F)c2)c(C(C)C)c1 [Example 1.132]
≥ 6.70 | CCOc1cc(NC(=O)C(CC2CC=CCC2)C(=O)O)ccc1S(=O)(=O)Nc1cccc(OC(F)(F)F)c1 (centres unmarked) [Example 1.229]
≥ 6.70 | CCOc1cc(NC(=O)Cc2ccccc2)ccc1S(=O)(=O)Nc1cccc(OC(F)(F)F)c1 [Example 1.097]
≥ 6.70 | C=C(C)CC(C(=O)O)C(=O)Nc1ccc(S(=O)(=O)Nc2cccc(OC(F)(F)F)c2)c(OCC)c1 (centres unmarked) [Example 1.176]
≥ 6.70 | C=C(C)CC(CCO)C(=O)Nc1ccc(S(=O)(=O)Nc2cccc(OC(F)(F)F)c2)c(OCC)c1 (centres unmarked) [Example 1.180]
≥ 6.70 | CCOc1cc(NC(=O)[C@@H](CO)c2ccccc2)ccc1S(=O)(=O)Nc1ccc(Cl)c(OC(F)(F)F)c1 [Example 1.389]
6.12 to 6.70 | COc1cc(NC(=O)[C@@H](CO)C(C)C)ccc1S(=O)(=O)Nc1ccc(C)c(C(F)(F)F)c1 [Example 1.495]
≥ 6.70 | COc1cc(NC(=O)C(O)C(C)C)ccc1S(=O)(=O)Nc1cccc(C(F)(F)F)c1 (centres unmarked) [Example 1.535]
6.12 to 6.70 | CCOc1cc(NC(=O)[C@H]2CCOC[C@@H]2O)ccc1S(=O)(=O)Nc1cccc(OC(F)(F)F)c1 [Example 1.410]
≥ 6.70 | CCOc1cc(NC(=O)C(CC2CCOCC2)C(=O)O)ccc1S(=O)(=O)Nc1cccc(OC(F)(F)F)c1 (centres unmarked) [Example 1.118]
4.70 to 5.70 | COc1cc(NC(=O)CC2COCCN2)ccc1S(=O)(=O)Nc1cccc(C(F)(F)F)c1 (centres unmarked) [Example 1.240]
≥ 6.70 | CCOc1cc(NC(=O)[C@@H](O)c2ccccc2)ccc1S(=O)(=O)Nc1ccc(C)c(OC(F)(F)F)c1 [Example 1.279]
4.70 to 5.70 | CC(=O)Nc1cc(C)c(S(=O)(=O)Nc2cccc(C(F)(F)F)c2)c(C)c1 [Example 1.490]

pIC50 | SMILES
≥ 6.70 | CCOc1cc(NC(=O)[C@H]2CC=CC[C@@H]2CO)ccc1S(=O)(=O)Nc1cccc(OC(F)(F)F)c1 [Example 1.453]
5.70 to 6.12 | COc1cccc(NS(=O)(=O)c2ccc(NC(=O)c3ccnn3C)cc2OC)c1 [Example 1.348]
≥ 6.70 | CCOc1cc(NC(=O)C(OC)c2ccccc2)ccc1S(=O)(=O)Nc1cccc(OC(F)(F)F)c1 (centres unmarked) [Example 1.399]
≥ 6.70 | CCOc1cc(NC(=O)c2ccn(C)c(=O)c2)ccc1S(=O)(=O)Nc1cccc(OC(F)(F)F)c1 [Example 1.110]
5.70 to 6.12 | Cn1nccc1C(=O)Nc1ccc(S(=O)(=O)Nc2cccc(C(F)(F)F)c2)c(OC(F)(F)F)c1 [Example 1.461]
5.70 to 6.12 | CCOc1cc(NC(=O)[C@@H](CO)c2ccccc2)ccc1S(=O)(=O)Nc1ccc(C(F)(F)F)cc1 [Example 1.295]
6.12 to 6.70 | CCOc1cc(NC(=O)c2cccc3cn[nH]c23)ccc1S(=O)(=O)Nc1cccc(OC(F)(F)F)c1 [Example 1.357]
5.70 to 6.12 | CCOc1cc(NC(=O)CC(O)C2CCCOC2)ccc1S(=O)(=O)Nc1cccc(OC(F)(F)F)c1 (centres unmarked) [Example 1.230]
≥ 6.70 | CCOc1cc(NC(=O)C(CO)C2CCCC2)ccc1S(=O)(=O)Nc1cccc(OC(F)(F)F)c1 (centres unmarked) [Example 1.455]
4.70 to 5.70 | CCOc1cc(NC(=O)[C@@H](CO)c2ccccc2)ccc1S(=O)(=O)Nc1cccc(Cl)c1OC [Example 1.190]
≥ 6.70 | CCOc1cc(NC(=O)C2CC=CC[C@@H]2O)ccc1S(=O)(=O)Nc1ccc(C)c(OC(F)(F)F)c1 (some centres unmarked) [Example 1.172]
6.12 to 6.70 | CCOC(=O)[C@H]1CC(C)=C(C)C[C@@H]1C(=O)Nc1ccc(S(=O)(=O)Nc2cccc(OC(F)(F)F)c2)c(OCC)c1 [Example 1.291]
4.70 to 5.70 | CCOc1cc(NC(=O)[C@@H](O)C(C)C)ccc1S(=O)(=O)Nc1cccc(C(F)(F)F)c1F [Example 1.075]
4.70 to 5.70 | COCCC(=O)Nc1ccc(S(=O)(=O)Nc2cccc(C(F)(F)F)c2)c(OC)c1 [Example 1.423]
≥ 6.70 | CCOc1cc(NC(=O)C(C(N)=O)C2CCCC2)ccc1S(=O)(=O)Nc1cccc(OC(F)(F)F)c1 (centres unmarked) [Example 1.245]
6.12 to 6.70 | CC(C)c1cc(NC(=O)c2ccnn2C)ccc1S(=O)(=O)Nc1cccc(OC(F)(F)F)c1 [Example 1.456]
≥ 6.70 | CCOc1cc(NC(=O)[C@@H](CO)c2ccccc2)ccc1S(=O)(=O)Nc1ccc(F)c(OC(F)(F)F)c1 [Example 1.208]
6.12 to 6.70 | COc1cc(NC(=O)[C@@H](O)C(C)C)ccc1S(=O)(=O)Nc1ccc(C)c(C(F)(F)F)c1 [Example 1.369]
4.70 to 5.70 | Cc1cc(NC(=O)c2ccccn2)ccc1S(=O)(=O)Nc1cccc(C(F)(F)F)c1 [Example 1.098]
4.70 to 5.70 | CCOc1cc(NC(=O)[C@@H](CO)C(C)C)ccc1S(=O)(=O)Nc1cccc(Cl)c1C(F)(F)F [Example 1.159]
≥ 6.70 | CCOc1cc(NC(=O)C(C(=O)O)C(C)C)ccc1S(=O)(=O)Nc1cccc(OC(F)(F)F)c1 (centres unmarked) [Example 1.217]
6.12 to 6.70 | Cc1cc(NC(=O)c2ccn(C)c(=O)c2)ccc1S(=O)(=O)Nc1cccc(OC(F)(F)F)c1 [Example 1.100]
5.70 to 6.12 | Cc1cc(NC(=O)C2CCCOC2)ccc1S(=O)(=O)Nc1cccc(C(F)(F)F)c1 (centres unmarked) [Example 1.478]
6.12 to 6.70 | COc1cc(NC(=O)[C@@H]2CCOC[C@H]2C)ccc1S(=O)(=O)Nc1cccc(OC(F)(F)F)c1 (racemic) [Example 1.007]

pIC50 | SMILES
6.12 to 6.70 | CCOc1cc(NC(=O)C(O)c2ccc3c(c2)OCO3)ccc1S(=O)(=O)Nc1cccc(OC(F)(F)F)c1 (centres unmarked) [Example 1.091]
6.12 to 6.70 | CCOc1cc(NC(=O)C2CCC(=O)C2)ccc1S(=O)(=O)Nc1cccc(OC(F)(F)F)c1 (centres unmarked) [Example 1.152]
≥ 6.70 | CCOc1cc(NC(=O)c2ccnnc2)ccc1S(=O)(=O)Nc1cccc(OC(F)(F)F)c1 [Example 1.530]
5.70 to 6.12 | Cc1ccc(C(=O)Nc2ccc(S(=O)(=O)Nc3cccc(C(F)(F)F)c3)c(C)c2)cc1 [Example 1.251]
≥ 6.70 | Cc1cc(NC(=O)[C@@H](CO)C(C)C)ccc1S(=O)(=O)Nc1cccc(OC(F)(F)F)c1 [Example 1.174]
≥ 6.70 | CCOc1cc(NC(=O)C(CCO)CC(C)C)ccc1S(=O)(=O)Nc1cccc(OC(F)(F)F)c1 (centres unmarked) [Example 1.383]
≥ 6.70 | CCOc1cc(NC(=O)[C@@H](O)C(C)C)ccc1S(=O)(=O)Nc1ccc(F)c(CC)c1 [Example 1.431]
4.70 to 5.70 | CCOc1cc(NC(=O)[C@@H](O)C(C)C)ccc1S(=O)(=O)Nc1cccc(Cl)c1Cl [Example 1.555]
5.70 to 6.12 | COc1cc(NC(=O)c2ccnn2C)ccc1S(=O)(=O)Nc1ccc(C#N)c(OC(F)(F)F)c1 [Example 1.015]
4.70 to 5.70 | CC(=O)Nc1ccc(S(=O)(=O)Nc2cccc(C(F)(F)F)c2)c(F)c1 [Example 1.385]
4.70 to 5.70 | Cc1cc(NC(=O)N2CCOCC2)ccc1S(=O)(=O)Nc1cccc(C(F)(F)F)c1 [Example 1.148]
≥ 6.70 | CCOc1cc(NC(=O)c2ccc(OC)nc2)ccc1S(=O)(=O)Nc1cccc(OC(F)(F)F)c1 [Example 1.413]
≥ 6.70 | CCc1cc(NC(=O)C(NC(C)=O)C(C)C)ccc1S(=O)(=O)Nc1cccc(OC(F)(F)F)c1 (centres unmarked) [Example 1.487]
6.12 to 6.70 | Cc1cc(NC(=O)c2ccnn2C)cc(C)c1S(=O)(=O)Nc1cccc(C(F)(F)F)c1 [Example 1.504]
6.12 to 6.70 | Cc1cc(NC(=O)C2CCOCC2)ccc1S(=O)(=O)Nc1cccc(C(F)(F)F)c1 [Example 1.500]
4.70 to 5.70 | CC(=O)Nc1cc(C)c(S(=O)(=O)Nc2cccc(OC(F)(F)F)c2)c(F)c1 [Example 1.444]
4.70 to 5.70 | CCOc1cc(NC(=O)C2CCCNC2)ccc1S(=O)(=O)Nc1cccc(OC(F)(F)F)c1 (centres unmarked) [Example 1.030]
≥ 6.70 | CCOc1cc(NC(=O)[C@@H](O)C(C)C)ccc1S(=O)(=O)Nc1ccc(C)c(Cl)c1 [Example 1.368]
6.12 to 6.70 | COc1cc(NC(=O)c2ccnn2C)ccc1S(=O)(=O)Nc1ccc(C(F)(F)F)cc1 [Example 1.224]
≥ 6.70 | COc1cc(NC(=O)c2ccns2)ccc1S(=O)(=O)Nc1cccc(C(F)(F)F)c1 [Example 1.115]
6.12 to 6.70 | Cc1cc(NC(=O)c2ccccc2Cl)ccc1S(=O)(=O)Nc1cccc(C(F)(F)F)c1 [Example 1.292]
5.70 to 6.12 | CCOc1cc(NC(=O)[C@H]2CC[C@@H](OC)CC2)ccc1S(=O)(=O)Nc1cccc(OC(F)(F)F)c1 [Example 1.412]
6.12 to 6.70 | CCOc1cc(NC(=O)[C@H]2CCC=C[C@H]2O)ccc1S(=O)(=O)Nc1cccc(OC(F)(F)F)c1 [Example 1.226]
